# From patent publication US8653087B2, “Pyrido [5, 4-D] pyrimidines as cell proliferation inhibitors” (Boehringer Ingelheim International GmbH, priority 2008, dated 2014)
# Target: B-Raf (V600E)-kinase (Homo sapiens (Human), UniProt P15056, V600E)
# Assay: Kinase test B-RAF (V600E)
# Format: biochemical
# Conditions: B-RAF (V600E) kinase test, 250 μM ATP
# Procedure, shortened: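 Read-out is DELFIA europium TRF of phospho-MEK (Ser217/221) on biotinylated MEK1 bound to streptavidin plates, IC50 from dose-response. Reaction ran 60 min at RT with 250 μM ATP, after a 24 h RT preincubation of compound with B-Raf (V600E) kinase, 5% DMSO final.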
# Sequence of B-Raf (V600E)-kinase (P15056 whole entry V600E): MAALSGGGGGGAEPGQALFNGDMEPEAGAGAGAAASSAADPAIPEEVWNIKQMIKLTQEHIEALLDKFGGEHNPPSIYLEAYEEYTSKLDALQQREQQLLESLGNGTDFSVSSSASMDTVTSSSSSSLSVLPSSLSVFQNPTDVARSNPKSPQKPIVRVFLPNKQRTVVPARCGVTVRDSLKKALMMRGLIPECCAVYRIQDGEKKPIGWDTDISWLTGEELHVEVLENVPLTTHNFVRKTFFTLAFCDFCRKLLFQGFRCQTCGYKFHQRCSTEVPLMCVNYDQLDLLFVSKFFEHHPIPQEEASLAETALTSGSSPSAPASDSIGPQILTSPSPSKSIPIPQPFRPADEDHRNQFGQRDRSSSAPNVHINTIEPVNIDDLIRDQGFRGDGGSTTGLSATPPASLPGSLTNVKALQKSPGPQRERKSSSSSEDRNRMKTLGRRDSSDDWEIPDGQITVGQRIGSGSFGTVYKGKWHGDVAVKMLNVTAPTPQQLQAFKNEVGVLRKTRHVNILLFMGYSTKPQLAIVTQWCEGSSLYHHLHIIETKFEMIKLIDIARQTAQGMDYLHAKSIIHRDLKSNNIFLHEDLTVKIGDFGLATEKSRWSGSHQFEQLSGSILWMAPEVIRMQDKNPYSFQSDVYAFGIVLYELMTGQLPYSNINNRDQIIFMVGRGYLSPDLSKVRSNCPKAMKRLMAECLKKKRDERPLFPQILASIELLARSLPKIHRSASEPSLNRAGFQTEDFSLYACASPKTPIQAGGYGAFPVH
row,Compound,IC50 [nM]
1,CC(C)(C)c1cc(NC(=O)c2ccc(F)c(Nc3ncnc4cnc(N5CCCC5)nc34)c2)no1 [III-90],5
2,COc1ccc(NC(=O)c2ccc(C(F)(F)F)c(Nc3ncnc4cnc(N(C)C)nc34)c2)cc1C(F)(F)F [III-54],543
3,Cc1ccc(C(=O)Nc2cccc(C(F)(F)F)c2)cc1Nc1ncnc2cnc(N3CCCC3)nc12 [III-266],1
4,Cc1ccc(C(=O)Nc2cccc(C(C)(C)C)c2)cc1Nc1ncnc2cnc(N3CC[C@@H](F)C3)nc12 [III-244],< 1
5,COCCN(C)c1ncc2ncnc(Nc3cc(C(=O)Nc4cc(C(C)(C)C)on4)ccc3F)c2n1 [III-84],2
6,CC(C)(C)c1cc(NC(=O)c2ccc(C(F)(F)F)c(Nc3ncnc4cnc(N5CCCC5)nc34)c2)no1 [III-64],> 1000
7,Cc1ccc(C(=O)Nc2cc(C(C)(C)C)n[nH]2)cc1Nc1ncnc2c(N)nc(N3CCC(N4CCN(C)CC4)CC3)nc12 [I-52],55
8,COc1ccc(NC(=O)c2ccc(C(F)(F)F)c(Nc3ncnc4cnc(N5CCCC5)nc34)c2)cc1C(F)(F)F [III-51],381
9,CN1CCN(c2ncc3ncnc(Nc4cc(C(=O)Nc5cc(C(C)(C)C)on5)ccc4Cl)c3n2)CC1 [III-72],4
10,Cc1ccc(C(=O)Nc2cccc(N(C)C)c2)cc1Nc1ncnc2cnc(N(C)CCN(C)C)nc12 [III-238],87
11,COc1ccc(NC(=O)c2ccc(C(F)(F)F)c(Nc3ncnc4cnc(N(C)CCN(C)C)nc34)c2)cc1C(F)(F)F [III-43],972
12,CNc1ncc2ncnc(Nc3cc(C(=O)Nc4cc(C(C)(C)C)on4)ccc3F)c2n1 [III-94],6
13,Cc1ccc(C(=O)NCc2ccc(C(F)(F)F)cc2)cc1Nc1ncnc2cnc(N(C)CCN(C)C)nc12 [III-236],1120
14,Cc1ccc(C(=O)Nc2cc(OCCN(C)C)cc(C(F)(F)F)c2)cc1Nc1ncnc2cnc(N3CCC(F)CC3)nc12 [III-145],2
15,Cc1ccc(C(=O)Nc2cc(C(C)(C)C)n[nH]2)cc1Nc1ncnc2c(N)nc(N3CCN(C4CCN(C)CC4)CC3)nc12 [I-12],2
16,Cc1ccc(C(=O)Nc2cccc(OC(F)(F)F)c2)cc1Nc1ncnc2cnc(N3CCCC3)nc12 [III-270],20
17,Cc1ccc(C(=O)Nc2cc(C(C)(C)C)n[nH]2)cc1Nc1ncnc2c(N)nc(N3CCN(C)CC3)nc12 [I-18],3
18,Cc1ccc(C(=O)Nc2cccc(S(=O)(=O)N(C)C)c2)cc1Nc1ncnc2cnc(N3CCNCC3)nc12 [III-344],7
19,Cc1ccc(C(=O)Nc2cc(C(F)(F)F)ccn2)cc1Nc1ncnc2cnc(N3CCOCC3)nc12 [III-321],< 1
20,Cc1ccc(C(=O)NCc2ccc(C(F)(F)F)cc2)cc1Nc1ncnc2cnc(N3CCCC3)nc12 [III-250],40

row,Compound,IC50 [nM]
1,Cc1ccc(C(=O)NCC2CCOC2)cc1Nc1ncnc2cnc(N3CCCC3)nc12 (stereo not shown) [III-256],15000
2,COc1ccc(NC(=O)c2ccc(C)c(Nc3ncnc4cnc(N5CCN(CC6CCN(C)CC6)CC5)nc34)c2)cc1C(F)(F)F [III-419],1
3,Cc1ccc(C(=O)Nc2cccc(C(F)(F)F)c2)cc1Nc1ncnc2c(N)nc(N3CCCN(C)CC3)nc12 [I-68],< 1
4,Cc1ccc(C(=O)Nc2cc(C(C)(C)C)n[nH]2)cc1Nc1ncnc2c(N)nc(N3C[C@H]4C[C@@H]3CN4C)nc12 [I-36],4
5,Cc1ccc(C(=O)Nc2nnc(C(F)(F)F)s2)cc1Nc1ncnc2cnc(N3CC[C@H](F)C3)nc12 [III-285],274
6,Cc1ccc(C(=O)Nc2cc(C(F)(F)F)ccn2)cc1Nc1ncnc2cnc(N3CCN(C)CC3)nc12 [III-261],< 1
7,Cc1ccc(C(=O)Nc2cc(C(C)(C)C)n[nH]2)cc1Nc1ncnc2c(N)nc(N3C[C@@H]4C[C@H]3CN4)nc12 [I-69],2
8,Cc1ccc(C(=O)Nc2cccc(C(F)(F)F)c2)cc1Nc1ncnc2cnc(N3CCN(C)CC3)nc12 [III-298],1
9,Cc1ccc(C(=O)NCc2cccc(C(C)(C)C)c2)cc1Nc1ncnc2cnc(N3CCN(C)CC3)nc12 [III-310],50
10,COc1ccc(NC(=O)c2ccc(Cl)c(Nc3ncnc4cnc(N5CCN(C)CC5)nc34)c2)cc1C(F)(F)F [III-9],7
11,Cc1ccc(C(=O)Nc2cc(OCCN(C)C)cc(C(F)(F)F)c2)cc1Nc1ncnc2cnc(NCC(C)C)nc12 [III-153],< 1
12,Cc1ccc(C(=O)Nc2cc(C(F)(F)F)ccn2)cc1Nc1ncnc2cnc(N3CC[C@H](F)C3)nc12 [III-345],1
13,Cc1ccc(C(=O)Nc2cc(C(C)(C)C)nn2C)cc1Nc1ncnc2c(N)nc(N3CCN4CCCC4C3)nc12 (stereo not shown) [I-85],7
14,Cc1ccc(C(=O)Nc2cc(N(C)CCN(C)C)cc(C(F)(F)F)c2)cc1Nc1ncnc2cnc(NCc3ccccn3)nc12 [III-172],2
15,Cc1ccc(C(=O)Nc2cc(CN3CCCC3)cc(C(F)(F)F)c2)cc1Nc1ncnc2cnc(NCc3ccncc3)nc12 [III-114],2
16,Cc1ccc(C(=O)Nc2cc(CN3CCCC3)cc(C(F)(F)F)c2)cc1Nc1ncnc2cnc(N(C)C)nc12 [III-115],2
17,CCN1CCN(c2cc(NC(=O)c3ccc(C)c(Nc4ncnc5c(N)nc(N6CCOCC6)nc45)c3)cc(C(F)(F)F)c2)CC1 [I-77],2
18,Cc1ccc(C(=O)Nc2ccc(C(F)(F)F)cc2)cc1Nc1ncnc2c(N)nc(N3CCN(C4CCN(C)CC4)CC3)nc12 [I-7],3
19,COc1ccc(C(=O)Nc2ccc(OC)c(C(F)(F)F)c2)cc1Nc1ncnc2cnc(N3CCN(C)CC3)nc12 [III-22],6

# Results, then the compound that gave them:
row,IC50 [nM],Compound
1,5,COc1c(CNC(C)C)cc(C(F)(F)F)cc1NC(=O)c1ccc(C)c(Nc2ncnc3cnc(N4CCOCC4)nc23)c1 [III-540]
2,2000,Cn1nc(C(C)(C)C)cc1NC(=O)c1cc(Cl)cc(Nc2ncnc3cnc(N4CCOCC4)nc23)c1Cl [III-375]
3,10,COCCN1CCN(c2ncc3ncnc(Nc4cc(C(=O)Nc5cc(C(F)(F)F)ccc5-n5cccn5)ccc4C)c3n2)CC1 [III-538]
4,4,Cc1ccc(C(=O)Nc2cc(N3CCN(C)CC3)cc(C(F)(F)F)c2)cc1Nc1ncnc2cnc(N3CC[C@H](F)C3)nc12 [III-457]
5,< 1,Cc1ccc(C(=O)Nc2cc(C(C)(C)C)n[nH]2)cc1Nc1ncnc2cnc(NC3CCOC3)nc12 (stereo not shown) [III-353]
6,< 1,COCCN(C)c1ncc2ncnc(Nc3cc(C(=O)Nc4cccc(C(C)(C)C)c4)ccc3C)c2n1 [III-468]
7,5,Cc1cc(C(=O)Nc2cc(C(C)(C)C)nn2C)cc(Nc2ncnc3cnc(N4CCOCC4)nc23)c1C [III-372]
8,1,COc1ccc(NC(=O)c2ccc(C)c(Nc3ncnc4cnc(N5CCC(CN(C)C)CC5)nc34)c2)cc1C(F)(F)F [III-599]
9,5,Cc1ccc(C(=O)Nc2cc(C(C)(C)C)on2)cc1Nc1ncnc2cnc(N3CC[C@H](F)C3)nc12 [III-412]
10,10000,CCC(C)S(=O)(=O)Nc1ccc(C)c(Nc2ncnc3cnc(N4CCN(C)CC4)nc23)c1 (stereo not shown) [IV-56]
11,1,Cc1ccc(C(=O)Nc2cc(N3CCCN(C)CC3)cc(C(F)(F)F)c2)cc1Nc1ncnc2cnc(N3CC[C@H](F)C3)nc12 [III-458]
12,< 1,Cc1ccc(C(=O)Nc2cc(C(C)(C)C)nn2C)cc1Nc1ncnc2cnc(NC3CCOC3)nc12 (stereo not shown) [III-348]
13,4,COCCN1CCN(c2ncc3ncnc(Nc4cc(C(=O)Nc5cc(C(C)(C)C)on5)ccc4F)c3n2)CC1 [III-395]
14,2,CCN1CCN(c2cc(C(=O)Nc3ccc(C)c(Nc4ncnc5cnc(N6CCOCC6)nc45)c3)cc(C(C)(C)C#N)c2)CC1 [IV-67]
15,17,Cc1ccc(C(=O)Nc2cc(C(C)(C)C)nn2C)cc1Nc1ncnc2cnc(N(C)CC3CCCCO3)nc12 (stereo not shown) [III-476]
16,2,Cc1ccc(C(=O)Nc2cc(C(C)(C)C)on2)cc1Nc1ncnc2cnc(N3CCN(C(C)C)CC3)nc12 [III-492]

row,IC50 [nM],Compound
1,6,CN(C)C1CCN(c2ncc3ncnc(Nc4cc(Cl)cc(C(=O)Nc5cc(C(C)(C)C)nn5C)c4)c3n2)C1 (stereo not shown) [III-379]
2,6,COCCN1CCN(c2ncc3ncnc(Nc4cc(C(=O)Nc5cc(C(F)(F)F)ccc5Cl)ccc4C)c3n2)CC1 [III-533]
3,5,Cc1ccc(C(=O)Nc2cc(N3CCN(C)CC3)c(F)c(C(F)(F)F)c2)cc1Nc1ncnc2cnc(N3CCN(CC4CCN(C)CC4)CC3)nc12 [III-509]
4,28,Cc1ccc(C(=O)Nc2cc(C(C)(C)C)on2)cc1N(C)c1ncnc2cnc(N3CCOCC3)nc12 [III-580]
5,7,Cc1ccc(C(=O)Nc2cc(C(C)(C)C)nn2C)cc1Nc1ncnc2cnc(N3CCN(CC4CCN(C)CC4)CC3)nc12 [III-414]
6,1,COCCN(C)c1ncc2ncnc(Nc3cc(C(=O)Nc4ccc(OC)c(C(F)(F)F)c4)ccc3C)c2n1 [III-473]
7,3,COc1ccc(NC(=O)c2ccc(C)c(Nc3ncnc4cnc(N(C)C5CCOC5)nc34)c2)cc1C(F)(F)F (stereo not shown) [III-548]
8,74,COCCN1CCN(c2ncc3ncnc(N(C)c4cc(C(=O)Nc5cc(C(C)(C)C)on5)ccc4C)c3n2)CC1 [III-582]
9,4,CN1CCC(N(C)c2ncc3ncnc(Nc4cc(C(=O)Nc5cc(C(C)(C)C)on5)ccc4F)c3n2)C1 (stereo not shown) [III-400]
10,9,Cc1ccc(NC(=O)c2cc(N3CCN(C)CC3)cc(C(F)(F)F)c2)cc1Nc1ncnc2cnc(N(C)CCN(C)C)nc12 [IV-18]
11,2,Cc1ccc(C(=O)Nc2cc(C(C)(C)C)on2)cc1Nc1ncnc2cnc(N(C)C3CC(N4CCN(C)CC4)C3)nc12 (stereo not shown) [III-596]
12,1,Cc1ccc(C(=O)Nc2cc(N3CCCN(C)CC3)cc(C(F)(F)F)c2)cc1Nc1ncnc2cnc(N(C)CCF)nc12 [III-514]
13,193,COCCN1CCN(c2ncc3ncnc(N(C)c4cc(C(=O)Nc5ccc(OC)c(C(F)(F)F)c5)ccc4C)c3n2)CC1 [III-586]
14,3,Cc1ccc(C(=O)Nc2cc(C(F)(F)F)ccn2)cc1Nc1ncnc2cnc(NCc3ccccc3)nc12 [III-522]
15,3,Cc1ccc(C(=O)Nc2cc(N3CCN(C(C)C)CC3)cc(C(F)(F)F)c2)cc1Nc1ncnc2cnc(N3CC[C@H](F)C3)nc12 [III-456]
